Assay results reported in patent publication US11931423B2, “Glucose oxidase-nanoparticle bioconjugates for cancer treatment” (UNIVERSITY OF PITTSBURGH—OF THE COMMONWEALTH SYSTEM OF …, priority 2017, dated 2024).

System: A431 cells with high EGFR expression
Experiment: A431 cell viability (CellTiter-Glo viability assay)
Format: cell-based
Details: Homo sapiens, A-431, 50 μM (30 μg/mL), after 24 h, PBS = 100% viability
Procedure: As a comparison, the A431 cells were also treated with SPION alone, a mixture of unconjugated SPION and GOx, and doxorubicin (a chemotherapy drug).
A431 cancer cells were purchased from ATCC. They were cultured in Dulbecco's Modified Eagle Medium (DMEM) containing 10% FBS, penicillin (100 U/mL), and streptomycin (100 μg/mL) at 37° C. in a humidified atmosphere containing 5% CO2 and 95% air.
50 μL SPION, the mixture of GOx and SPION without conjugation, mAb-GOx-SPION, doxorubicin, or PBS (as a control) were each added to a 96-well plate seeded with A431 cancer cells, followed by addition of 100 μL of DMEM containing 4 g/L glucose. After being incubated for various amounts of time, the cells were washed with PBS 3 times. 100 μL DMEM was added before cell viability was measured by using a CellTiter-Glo viability assay kit.
The cytotoxic effects of the system as functions of the concentrations of both cetuximab-GOx-SPION and glucose were investigated. 50 μL cetuximab-GOx-SPION (1.0 μg/mL) was added to 96-well plates seeded with A431 and HeLa cancer cells, followed by addition of 100 μL of DMEM that contains glucose at 20 g/L. After 1.5 h incubation, the cells were washed with PBS 3 times and then cultured in 200 μL of DMEM. After being incubated for another 12 h, cell viability was measured by using CellTiter-Glo viability assay kit. […]

COc1cccc2c1C(=O)c1c(O)c3c(c(O)c1C2=O)C[C@@](O)(C(=O)CO)C[C@@H]3O[C@H]1C[C@H](N)[C@H](O)[C@H](C)O1 [doxorubicin]
viability at 50 µM: ~3%
